In PubChem BioAssay (NCI):
Where “and” joins values, the source holds several entries; their conditions need not be identical. Equal values may be shown once.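 Five concentrations, 48 hours, 96-well plates. GI50 = concentration required for 50% inhibition of growth. TGI denotes the concentration required for complete inhibition of growth.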

Experiments:
Assay in all cases: NCI tumour cell line growth inhibition, 48 h
[1] = tested on: 786-0 renal
[2] = tested on: HCC-2998 colon
[3] = tested on: MCF7 breast
[4] = tested on: MDA-MB-231 breast
[5] = tested on: MOLT-4 leukemia
[6] = tested on: OVCAR-5 ovarian
[7] = tested on: OVCAR-8 ovarian
[8] = tested on: SNB-19 CNS

Compound	GI50 [1]	TGI [1]	GI50 [2]	TGI [2]	GI50 [3]	TGI [3]	GI50 [4]	TGI [4] [µM]	GI50 [5]	TGI [5] [µM]	GI50 [6]	TGI [6] [µM]	GI50 [7]	TGI [7] [µM]	GI50 [8]	TGI [8]
COc1cc2c(cc1NC(=O)C(Cl)Cl)-c1ccc(NC(=O)C(Cl)Cl)cc1C2	1.27 µM	3.92 µM	0.976 µM	2.38 µM	0.391 µM	1.82 µM	0.499 µM	2	11.9 µM	> 89.6	1.77 µM	4.75	0.439 µM	1.68	0.461 µM	2.06 µM
O=c1[nH]c(=S)[nH]c(-c2ccccc2)c1Cc1c(O)ccc2ccccc12	–	> 100 µM	–	–	–	> 100 µM	–	> 100	–	> 100	–	> 100	–	> 100	–	> 100 µM
O=C(c1ccco1)c1c(C(F)(F)F)n([O-])c2cc(F)c(F)cc2[n+]1=O	0.0512 µM	0.137 µM	–	0.0145 µM	0.108 µM	2.62 µM	0.14 µM	0.313	0.0867 µM	0.411	0.67 µM	2.38	0.412 µM	1.33	1.02 µM	2.35 µM
N#Cc1cc2c(cc1Cl)Sc1nnc(Nc3cccc4ccccc34)n1S2(=O)=O	16.9 µM	45.4 µM	–	–	2.1 µM	4.8 µM	2.49 µM	6.96	3.84 µM	> 100	15.1 µM	28.4	30.2 µM	> 100	1.89 µM	4.29 µM
COc1ccc(OC)c(Cc2cnc3nc(N)nc(N)c3c2C)c1	–	30.2 µM	–	16.4 µM	–	28.6 µM	–	33.8	–	23.5	–	48.1	–	27.8	–	55.4 µM
NCc1ccc(-c2nc(-c3ccc(Cl)c(O)c3)c(-c3ccncc3)[nH]2)cc1	> 25 µM	> 25 µM	> 25 µM	> 25 µM	> 25 µM	> 25 µM	11.7 µM	> 25	> 25 µM	> 25	> 25 µM	> 25	> 25 µM	> 25	> 25 µM	> 25 µM
Cn1c(C(=O)c2cccc3ccccc23)nc2ccccc21	> 100 µM	> 100 µM	> 100 µM	> 100 µM	3.81 µM	> 100 µM	> 100 µM	> 100	> 100 µM	> 100	> 100 µM	> 100	> 100 µM	> 100	> 100 µM	> 100 µM
CN1C(=NCCO)NS(=O)(=O)c2ccccc21	–	> 100 µM	–	> 100 µM	–	> 100 µM	–	> 100	–	> 100	–	> 100	–	> 100	–	> 100 µM
O=S(=O)(NCCCNc1nccc(-c2c(-c3ccc(F)cc3)nc3sccn23)n1)c1ccc(F)cc1	11 µM	> 100 µM	20.6 µM	> 100 µM	3.24 µM	> 100 µM	14.2 µM	> 100	8.08 µM	> 100	> 100 µM	> 100	4.56 µM	> 100	62.1 µM	> 100 µM
O=C1/C(=C/c2ccccc2[N+](=O)[O-])COc2ccc(O)cc21	1.72 µM	10 µM	1.51 µM	2.94 µM	0.697 µM	8.75 µM	1.77 µM	3.69	2.27 µM	8.23	1.73 µM	3.64	2.3 µM	47.8	4.15 µM	16.6 µM
CN1CCCC1c1cccnc1.O=C(O)c1ccccc1O.O=C([O-])c1ccccc1[OH2+].O=C([O-])c1ccccc1[OH2+].[Mn+2] (stereo not drawn)	> 100 µM	> 100 µM	–	–	40.3 µM	> 100 µM	> 100 µM	> 100	64.9 µM	> 100	73.1 µM	> 100	> 100 µM	> 100	> 100 µM	> 100 µM
N#Cc1c(NC(=O)c2ccccc2F)sc2c1CCCC2	> 25 µM	> 25 µM	13.4 µM	> 25 µM	> 19.5 µM	> 25 µM	> 23.5 µM	> 25	> 25 µM	> 25	> 25 µM	> 25	> 25 µM	> 25	> 25 µM	> 25 µM
N#CCNC(=O)c1ccc(-c2ccnc(Nc3ccc(N4CCOCC4)cc3)n2)cc1	1.56 µM and 1.26 µM	> 10 µM and 13.1 µM	> 10 µM and 3.98 µM	> 10 µM and 47.4 µM	1.78 µM and 1.54 µM	> 10 µM and 21.4 µM	2.26 µM and 2.19 µM	> 100	2.78 µM and 2.6 µM	> 100	3.43 µM and 4.07 µM	> 54.4	4.26 µM and 3.16 µM	> 73.6	7.23 µM and 10.2 µM	> 10 µM and 78.4 µM
O=C(c1cc(Cc2n[nH]c(=O)c3ccccc23)ccc1F)N1CCN(C(=O)C2CC2)CC1	> 100 µM	> 100 µM	53.5 µM and > 100 µM	> 100 µM	47.4 µM and 34.2 µM	> 100 µM	> 100 µM	> 100	46.7 µM and 22.4 µM	> 100	> 100 µM	> 100	> 100 µM	> 100	80.5 µM and > 85.1 µM	> 100 µM
CC(=O)Nc1ccc(S(=O)(=O)NN(C)S(=O)(=O)c2ccc(C)cc2)cc1	–	> 100 µM	–	> 100 µM	–	–	–	–	–	> 100	–	> 100	–	> 100	–	> 100 µM
Nc1nc(-c2ccc(Cl)cc2)nc2c1sc(=S)n2-c1ccccc1	1.84 µM	3.62 µM	7.52 µM	50.2 µM	4.29 µM	> 100 µM	3.44 µM	10.6	> 100 µM	> 100	4.98 µM	20.5	5.16 µM	> 100	3.55 µM	10.1 µM
N#CC1C(N)=NNC12Nc1ccccc1S2 (stereo not drawn)	63.4 µM	> 100 µM	–	–	37.5 µM	> 100 µM	3.59 µM	16.6	–	–	31.5 µM	76.5	13 µM	61.1	28.6 µM	> 100 µM

Compound	GI50 [1]	TGI [1]	GI50 [2]	TGI [2]	GI50 [3]	TGI [3]	GI50 [4]	TGI [4] [µM]	GI50 [5]	TGI [5] [µM]	GI50 [6]	TGI [6] [µM]	GI50 [7]	TGI [7] [µM]	GI50 [8]	TGI [8]
Cc1ccc(Cl)cc1-n1c(C)nc2c(cnn2-c2ccnc3c(C(F)(F)F)cccc23)c1=O	> 100 µM	> 100 µM	> 100 µM	> 100 µM	> 100 µM	> 100 µM	> 100 µM	> 100	> 100 µM	> 100	> 100 µM	> 100	> 100 µM	> 100	> 100 µM	> 100 µM
O=C1C(Sc2ccc3ccccc3c2)=C(Sc2ccc3ccccc3c2)C(=O)c2ccccc21	–	25.3 µM	–	19.6 µM	–	40.2 µM	–	18.3	–	5.9	–	27.1	–	22.2	–	20.3 µM
COc1cc(C(=O)/C=C/c2c(C(F)(F)F)nc3ccccn23)cc(OC)c1OC	1.72 µM	3.42 µM	1.83 µM	3.38 µM	1.44 µM	6.41 µM	4.59 µM	19.3	3.73 µM	> 100	1.98 µM	4.02	3.39 µM	> 100	1.93 µM	3.85 µM
C=CC(=O)N[C@@H](/C=C/C(=O)OCC)Cc1ccc(-c2cc(Cl)cc(Cl)c2)cc1	20.2 µM	91 µM	19.9 µM	57.6 µM	5.92 µM	66.4 µM	12.8 µM	48.8	7.14 µM	> 100	21.6 µM	> 100	8.89 µM	> 100	16.5 µM	> 100 µM
CN(C)CCCn1c2c(c3cc4c(cc3c1=O)OCO4)C(=O)c1ccccc1-2	0.0131 µM	1.96 µM	0.121 µM	–	6.84 µM	> 26.8 µM	0.465 µM	4.29	< 0.0218 µM	0.792	11.1 µM	45.7	0.0576 µM	0.922	2.84 µM	> 100 µM
CC1CCC2C(CN(CC3=C(C(F)(F)F)OC4OC5(C)CCC6C(C)CCC3C46OO5)CC3=C(C(F)(F)F)OC4OC5(C)CCC6C(C)CCC3C46OO5)=C(C(F)(F)F)OC3OC4(C)CCC1C32OO4 (stereo not drawn)	8.48 µM	21.9 µM	–	–	20.9 µM	59.9 µM	13.4 µM	36.6	9.11 µM	39.9	15.3 µM	> 100	14.1 µM	76.4	30.8 µM	> 100 µM
COc1ccc(-c2c3c(N)c4c(nc3nc3c2c(C)nn3-c2ccccc2)CCCC4)cc1	4.55 µM	17.5 µM	3.51 µM	12.7 µM	2.57 µM	8.88 µM	4.15 µM	16.9	2.3 µM	5.77	10.1 µM	23.2	2.82 µM	11.4	10.8 µM	26.8 µM
Nc1nc(C(=O)O)c(N=Nc2ccccc2)c(=O)[nH]1	–	> 100 µM	–	–	–	> 100 µM	–	> 100	–	> 100	–	> 100	–	> 100	–	> 100 µM
C=CC[N+]1(CC)CCN=C1CCCCCCCCCCCCCCCCC (stereo not drawn)	0.788 µM	2.11 µM	0.241 µM	0.797 µM	0.346 µM	1.28 µM	0.763 µM	2.19	1.07 µM	3.51	0.472 µM	1.64	–	–	–	–
O=C1C(Nc2cccc(O)c2)=C(Sc2ccccc2)C(=O)N1Cc1ccccc1	20.7 µM	39.4 µM	–	–	6.87 µM	22.8 µM	–	–	2.78 µM	12.3	18.2 µM	34.1	11.9 µM	26.9	13 µM	27 µM
Cc1ccc(S(=O)(=O)NC(=O)OC23COCN2COC3)cc1	–	> 100 µM	–	> 100 µM	–	> 100 µM	–	> 100	–	–	–	> 100	–	> 100	–	> 100 µM
NC(=O)CC(N)c1nn[nH]n1 (stereo not drawn)	–	> 100 µM	–	–	–	> 100 µM	–	> 100	–	> 100	–	> 100	–	> 100	–	> 100 µM
C[C@@H](NC(=O)c1ccc(F)cc1)c1ccc2c(c1)CCN2C(=O)C1CCOCC1	> 100 µM	> 100 µM	> 100 µM	> 100 µM	> 100 µM	> 100 µM	> 100 µM	> 100	> 100 µM	> 100	> 100 µM	> 100	> 100 µM	> 100	–	–
O=[N+]([O-])c1cc(Cc2cc([N+](=O)[O-])c3cccnc3c2O)c(O)c2ncccc12	–	> 54.3 µM	–	–	–	29.6 µM	–	25.9	–	> 30.4	–	76.1	–	> 42.9	–	51.2 µM
COc1cc(/C=C/C(=O)O[C@H]2[C@H](O[C@@H]3O[C@@H](C)[C@H](O)[C@@H](O)[C@H]3O)[C@@H](O)[C@H](OCCc3ccc(O)c(O)c3)O[C@@H]2COC2OCC(O)(CO)C2O)ccc1O (stereo partly drawn)	> 100 µM	> 100 µM	–	–	–	–	> 100 µM	> 100	> 100 µM	> 100	> 100 µM	> 100	–	–	> 100 µM	> 100 µM
C=C1C(=O)O[C@H]2[C@H]1CC/C(COC(=O)NCc1c[nH]c3ccc(F)cc13)=C\CC[C@@]1(C)O[C@@H]21	0.899 µM	2.43 µM	1.77 µM	3.41 µM	–	–	1.63 µM	3.16	1.42 µM	5.07	1.81 µM	4.05	1.68 µM	3.91	6.56 µM	20 µM
Clc1ccc([I+]c2ccc(Cl)cc2Cl)c(Cl)c1	2.09 µM	4.36 µM	–	–	1.87 µM	> 100 µM	2.04 µM	4.42	2.5 µM	6.62	1.8 µM	3.8	2.1 µM	4.8	4.28 µM	15.9 µM
